Data: patent EP2768830B1, “APOPTOSIS-INDUCING AGENTS FOR THE TREATMENT OF CANCER AND IMMUNE AND AUTOIMMUNE DISEASES” (AbbVie Inc., priority 2011, dated 2013)

Legend:
[1] = test system: mouse FL5.12 cells transfected with Bcl-XL; assay: FL5.12 cellular assay (cell viability, CellTiter-Glo); format: cell-based; conditions: Mus musculus; FL5.12 cells transfected with Bcl-XL, IL-3-depleted, 3% FBS assay media, 24 hours, CellTiter-Glo; read-out: FL5.12 Bcl-xL, - IL3, EC 50;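 further: each EC50 determination derived from duplicate measurements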
GST-Bcl-xL = GST-Bcl-xL (Homo sapiens, UniProt Q07817); conditions: read-out: TR-FRET binding Bcl-xL Ki
Chain of GST-Bcl-xL (Q07817 whole entry): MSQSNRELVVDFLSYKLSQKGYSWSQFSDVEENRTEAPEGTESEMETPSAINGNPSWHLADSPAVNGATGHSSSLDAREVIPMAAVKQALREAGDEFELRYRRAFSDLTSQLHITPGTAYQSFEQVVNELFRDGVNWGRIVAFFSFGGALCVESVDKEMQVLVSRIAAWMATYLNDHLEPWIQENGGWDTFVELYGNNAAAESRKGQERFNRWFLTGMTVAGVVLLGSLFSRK

SMILES	EC50 [1] [nM]	Ki (GST-Bcl-xL) [nM]
O=C(Nc1nc2ccccc2s1)c1cccc2c1CN(c1ccc(-c3cnn(C(CCN4CCOCC4)c4ccccc4)c3)c(C(=O)O)n1)CC2 (stereo not shown) [Example 77, 6-[8-(1,3-benzothiazol-2-ylcarbamoyl)-3,4-dihydroisoquinolin-2(1H)-yl]-3-{1-[3-(morpholin-4-yl)-1-phenylpropyl]-1H-pyrazol-4-yl}pyridine-2-carboxylic acid]	431	10
O=C(Nc1nc2ccccc2s1)c1cccc2c1CN(c1ccc(-c3cnn(Cc4cccc(F)c4F)c3)c(C(=O)O)n1)CC2 [Example 52, 6-[8-(1,3-benzothiazol-2-ylcarbamoyl)-3,4-dihydroisoquinolin-2(1H)-yl]-3-[1-(2,3-difluorobenzyl)-1H-pyrazol-4-yl]pyridine-2-carboxylic acid]	570	18
Cc1c(-c2ccc(N3CCc4cccc(C(=O)Nc5nc6ccccc6s5)c4C3)nc2C(=O)O)cnn1CC1(OCC(O)CO)CCCCCC1 (stereo not shown) [Example 175, 6-[8-(1,3-benzothiazol-2-ylcarbamoyl)-3,4-dihydroisoquinolin-2(1H)-yl]-3-(1-{[1-(2,3-dihydroxypropoxy)cycloheptyl]methyl}-5-methyl-1H-pyrazol-4-yl)pyridine-2-carboxylic acid]	33	< 0.1
O=C(Nc1nc2ccccc2s1)c1cccc2c1CN(c1ccc(-c3ccc4c(cnn4Cc4ccccc4)c3)c(C(=O)O)n1)CC2 [Example 153, 6-[8-(1,3-benzothiazol-2-ylcarbamoyl)-3,4-dihydroisoquinolin-2(1H)-yl]-3-(1-benzyl-1H-indazol-5-yl)pyridine-2-carboxylic acid]	587	0.3
COCCC1(Cn2ncc(-c3ccc(N4CCc5cccc(C(=O)Nc6nc7ccccc7s6)c5C4)nc3C(=O)NS(C)(=O)=O)c2C)CCCCCC1 [Example 148, N-(1,3-benzothiazol-2-yl)-2-{5-(1-{[1-(2-methoxyethyl)cycloheptyl]methyl}-5-methyl-1H-pyrazol-4-yl)-6-[(methylsulfonyl)carbamoyl]pyridin-2-yl}-1,2,3,4-tetrahydroisoquinoline-8-carboxamide]	13	< 0.1
Cc1c(-c2ccc(N3CCc4cccc(C(=O)Nc5nc6ccccc6s5)c4C3)nc2C(=O)O)cc(C#N)n1Cc1ccccc1 [Example 129, 6-[8-(1,3-benzothiazol-2-ylcarbamoyl)-3,4-dihydroisoquinolin-2(1H)-yl]-3-(1-benzyl-5-cyano-2-methyl-1H-pyrrol-3-yl)pyridine-2-carboxylic acid]	18	< 0.1
N#Cc1c(-c2ccc(N3CCc4cccc(C(=O)Nc5nc6ccccc6s5)c4C3)nc2C(=O)O)cccc1N1CCCC1C12CC3CC(CC(C3)C1)C2 (stereo not shown) [Example 182, 6-[8-(1,3-benzothiazol-2-ylcarbamoyl)-3,4-dihydroisoquinolin-2(1H)-yl]-3-{2-cyano-3-[2-(tricyclo[3.3.1.1^3,7]dec-1-yl)pyrrolidin-1-yl]phenyl}pyridine-2-carboxylic acid]	6	0.2
Cc1c(-c2ccc(N3CCc4cccc(C(=O)Nc5nc6ccccc6s5)c4C3)nc2C(=O)O)cnn1CC1(OCC(=O)N2CCOCC2)CCCCC1 [Example 174, 6-[8-(1,3-benzothiazol-2-ylcarbamoyl)-3,4-dihydroisoquinolin-2(1H)-yl]-3-[5-methyl-1-({1-[2-(morpholin-4-yl)-2-oxoethoxy]cyclohexyl}methyl)-1H-pyrazol-4-yl]pyridine-2-carboxylic acid]	210	< 0.1
Cc1c(-c2ccc(N3CCc4cccc(C(=O)Nc5nc6ccccc6s5)c4C3)nc2C(=O)O)ccnc1Oc1ccccc1 [Example 142, 6-[8-(1,3-benzothiazol-2-ylcarbamoyl)-3,4-dihydroisoquinolin-2(1H)-yl]-3'-methyl-2'-phenoxy-3,4'-bipyridine-2-carboxylic acid]	> 1000	0.5
COCCCC(c1ccccc1)n1cc(-c2ccc(N3CCc4cccc(C(=O)Nc5nc6ccccc6s5)c4C3)nc2C(=O)O)cn1 (stereo not shown) [Example 94, 6-[8-(1,3-benzothiazol-2-ylcarbamoyl)-3,4-dihydroisoquinolin-2(1H)-yl]-3-[1-(4-methoxy-1-phenylbutyl)-1H-pyrazol-4-yl]pyridine-2-carboxylic acid]	253	5
O=C(Nc1nc2ccccc2s1)c1cccc2c1CN(c1ccc(-c3cnn(C4CCc5ccccc54)c3)c(C(=O)O)n1)CC2 (stereo not shown) [Example 37, 6-[8-(1,3-benzothiazol-2-ylcarbamoyl)-3,4-dihydroisoquinolin-2(1H)-yl]-3-[1-(2,3-dihydro-1H-inden-1-yl)-1H-pyrazol-4-yl]pyridine-2-carboxylic acid]	347	17
CC(c1ccccc1)n1cc(-c2ccc(N3CCc4cccc(C(=O)Nc5nc6ccccc6s5)c4C3)nc2C(=O)O)cn1 (stereo not shown) [Example 5, 6-[8-(1,3-benzothiazol-2-ylcarbamoyl)-3,4-dihydroisoquinolin-2(1H)-yl]-3-[1-(1-phenylethyl)-1H-pyrazol-4-yl]pyridine-2-carboxylic acid]	408	19
O=C(Nc1nc2ccccc2s1)c1cccc2c1CN(c1ccc(-c3cnn(Cc4ccccc4O)c3)c(C(=O)O)n1)CC2 [Example 36, 6-[8-(1,3-benzothiazol-2-ylcarbamoyl)-3,4-dihydroisoquinolin-2(1H)-yl]-3-[1-(2-hydroxybenzyl)-1H-pyrazol-4-yl]pyridine-2-carboxylic acid]	> 1000	8
N#Cc1nn(Cc2ccccc2)cc1-c1ccc(N2CCc3cccc(C(=O)Nc4nc5ccccc5s4)c3C2)nc1C(=O)O [Example 27, 6-[8-(1,3-benzothiazol-2-ylcarbamoyl)-3,4-dihydroisoquinolin-2(1H)-yl]-3-(1-benzyl-3-cyano-1H-pyrazol-4-yl)pyridine-2-carboxylic acid]	> 1000	315
CN(C)c1ccccc1Cn1cc(-c2ccc(N3CCc4cccc(C(=O)Nc5nc6ccccc6s5)c4C3)nc2C(=O)O)cn1 [Example 80, 6-[8-(1,3-benzothiazol-2-ylcarbamoyl)-3,4-dihydroisoquinolin-2(1H)-yl]-3-{1-[2-(dimethylamino)benzyl]-1H-pyrazol-4-yl}pyridine-2-carboxylic acid]	253	4
Cc1c(-c2ccc(N3CCc4cccc(C(=O)Nc5nc6ccccc6s5)c4C3)nc2C(=O)O)cc(C#N)n1CC1(N(C)C)CCCCC1 [Example 176, 6-[8-(1,3-benzothiazol-2-ylcarbamoyl)-3,4-dihydroisoquinolin-2(1H)-yl]-3-(5-cyano-1-{[1-(dimethylamino)cyclohexyl]methyl}-2-methyl-1H-pyrrol-3-yl)pyridine-2-carboxylic acid]	10	< 0.1
Cc1c(-c2ccc(N3CCc4cccc(C(=O)Nc5nc6ccccc6s5)c4C3)nc2C(=O)O)cccc1N(C)C(=O)C1CCCCC1 [Example 177, 6-[8-(1,3-benzothiazol-2-ylcarbamoyl)-3,4-dihydroisoquinolin-2(1H)-yl]-3-{3-[(cyclohexylcarbonyl)(methyl)amino]-2-methylphenyl}pyridine-2-carboxylic acid]	24	< 0.1
